Laboratory results: patent US5874464A, “Conformationally constrained diacylglycerol analogues” (The United States of America as represented by the …, priority 1995, dated 1999)
Where two headings read alike, the source gives them in different places. Values belong to the molecule of their own block, whether it stands above or below them.

Key:
PK-C α [1] = biological target: T1, PK-C α (Homo sapiens, UniProt P17252); assay: displacement of bound [3H-20]-phorbol-12,13-dibutyrate (PDBU) from single recombinant isozyme PK-C α; type: binding; conditions: for Ki: PK-C α
T1 construct: made in house
Experimental: This recombinant PK-C α was expressed in baculovirus and isolated as described by Kazanietz et al. (Mol. Pharmacol. 44: 298-307 (1993)).
The affinity of these ligands for PK-C was assessed in terms of their ability to displace bound [^3 H-20]-phorbol-12,13-dibutyrate (PDBU) from a purified product containing the single isozyme PK-C α.

[2] = system: mouse skin tumor promotion; conditions: in vivo; cited from earlier work
[3] = stability to racemization / acyl migration; type: physicochemical; conditions: silica or neutral alumina
CD-1 mouse skin = assay: induction of acute edema or hyperplasia in CD-1 mouse skin; type: in vivo; conditions: 10-100 μg
PK-C α [4] = biological target: T2, PK-C α (Mus musculus, UniProt P20444); assay: down-regulation of PK-C α in primary mouse keratinocytes; type: cell-based; conditions: even after 24 h
T2 construct: in primary mouse keratinocytes; endogenous in cells; host or cells: primary mouse keratinocytes
Experimental: (§1) The biological activity of compound 3.8 was evaluated further. […] Finally, the ability of compound 3.8 to down-regulate PK-C α and PK-C δ in primary mouse keratinocytes after 24 hours was examined.

PK-Cε = assay: down-regulation of PK-Cε in primary mouse keratinocytes; type: cell-based; conditions: after 24 hours
[5] = system: binding of epidermal growth factor; assay: inhibition of binding of epidermal growth factor in intact cells; type: cell-based; conditions: read-out: ED50, inhibition of binding of epidermal growth factor
Experimental: as §1

PK-C α [6] = biological target: T1, PK-C α; assay: stimulation of phosphorylation of the α-pseudosubstrate peptide (activation of PK-C α); type: biochemical; conditions: read-out: ED50, stimulation of phosphorylation of the α-pseudosubstrate peptide
PK-C.eta. = assay: down-regulation of PK-C.eta. in primary mouse keratinocytes; type: cell-based; conditions: after 24 hours
melanoma = conditions: in vivo; cited from earlier work
[7] = Table II, racemic and chiral compounds, read-out: Apparent Ki for ligands as inhibitors of PDBU binding to PK-C
[8] = read-out: Ki, displacement of bound PDBU
[9] = Table I, read-out: Apparent Ki for ligands as inhibitors of PDBU binding to PK-C
[10] = Table IV, read-out: Apparent Ki for chiral ligands having an α-alkylidene chain as inhibitors of PDBU binding to PK-C

Ki (PK-C α [1]; [7]): 0.138 ± 0.024 µM
SMILES: CCCCCCCCCCCCCC(=O)OCC1(CO)CCC(=O)O1 (stereo not shown)

Ki (PK-C α [1]; [8]): 0.138 µM
SMILES: CCCCCCCCCCCCCC(=O)OCC1(CO)CCC(=O)O1 (racemic) [Compound 3e, 5-[(tetradecanoyloxy)methyl]-5-hydroxymethyl-tetrahydro-2-furanone]

SMILES: CC(=O)OC12CC(C)C3(O)C(C=C(CO)CC4(O)C(=O)C(C)=CC43)C1C2(C)C (stereo not shown) [12-deoxyphorbol-13-acetate]
inhibition of mouse skin tumor promotion [2]: 97%

Ki (PK-C α [1]; [8]): 0.096 µM
racemization on exposure to chromatographic conditions [3]: rapid racemization
SMILES: CCCCCCCCCCCCCC(=O)OC[C@]1(CO)CCC(=O)O1 [Compound 2.2, (R)-5-[(tetradecanoyloxy)methyl]-5-(hydroxymethyl)-tetrahydro-2-furanone]

binding affinity compared with the corresponding α-alkylidenes 3.9 and 3.10 (PK-C α [1]; Table IV): equivalent
SMILES: CCCCCCCC/C=C\CCCCCCC/C=C1\C[C@](/C=C/C(=O)OC)(CO)OC1=O [Compound 3.7, (S)-5-Hydroxymethyl-5-[2-(methoxycarbonyl)ethenyl]-3-{(E)-[(Z)-9-octadecenoylidene]}tetrahydro-2-furanone]

binding affinity compared with the corresponding α-alkylidenes 3.9 and 3.10 (PK-C α [1]; Table IV): equivalent
induction of acute edema (CD-1 mouse skin; 6 h): did not induce acute edema
loss in activity (PK-C α [4]): No loss in activity was observed
EC50 (PK-C α [6]): 0.163 ± 0.0167 µM
SMILES: CCCCCCCC/C=C\CCCCCCC/C=C1/C[C@](/C=C/C(=O)OC)(CO)OC1=O [Compound 3.8, (S)-5-Hydroxymethyl-5-[2-(methoxycarbonyl)ethenyl]-3-{(Z)-[(Z)-9-octadecenoylidene]}tetrahydro-2-furanone]
induction of hyperplasia (CD-1 mouse skin; 72 h): did not induce acute edema (10-100 μg, 6 h) or hyperplasia
down-regulation of PK-Cε (PK-Cε): did not down-regulate
IC50 [5]: 1 µM
down-regulation of PK-C.eta. (PK-C.eta.): did not down-regulate

Ki (PK-C α [1]; [9]): 0.096 ± 0.00745 µM
SMILES: CCCCCCCC/C=C\CCCCCCCC(=O)OCC1(CO)CCC(=O)O1 (stereo not shown) [Compound 3f, 5-{[(Z)-9-octadecenoyloxy]methyl}-5-hydroxymethyl-tetrahydro-2-furanone]

Ki (PK-C α [1]; [9]): 9.81 µM
SMILES: CCCCCCCCCCCCCC(=O)OCC1(CO)COC(=O)C1 (stereo not shown) [Compound 9c, 4-Hydroxymethyl-4-(tetradecanoyloxy)methyl-4-vinyltetrahydro-2-furanone]

Ki (PK-C α [1]; [9]): 0.075 ± 0.00254 µM
SMILES: CCCCCCCCCCCCCCC1CC(CO)(COC(C)=O)OC1=O (stereo not shown) [Compound 12, 5-(acetyloxymethyl)-5-(hydroxymethyl)-3-(tetradecanyl)-tetrahydro-2-furanone]

SMILES: CCCCCCCCCCCCC/C=C1\C(=O)OCC1(CO)COC(C)=O (stereo not shown) [Compound 14c, (Z)-4-[(acetoxy)methyl]-4-hydroxymethyl-3-(tetradecanylidene)-tetrahydro-2-furanone]
Ki (PK-C α [1]; [9]): 6.51 µM

SMILES: CCCC=CC=CC(=O)OC1C(=CC(=O)OC)CC2CC(C(C)O)OC(=O)CC(O)CC3CC(OC(C)=O)C(C)(C)C(O)(CC4CC(=CC(=O)OC)CC(C=CC(C)(C)C1(O)O2)O4)O3 (stereo not shown) [bryostatin-1]
results in clinical trials for treatment of melanoma (melanoma): promising results

Ki (PK-C α [1]; [7]): 0.096 ± 0.00217 µM
SMILES: CCCCCCCCCCCCCC(=O)OC[C@]1(CO)CCC(=O)O1 [drawing 16]

Ki (PK-C α [1]; [10]): 0.0201 ± 0.0029 µM
SMILES: CCCCCCCC/C=C\CCCCCCC/C=C1\C[C@](/C=C/C(=O)OC)(CO)OC1=O [drawing 35]

Ki (PK-C α [1]; [10]): 0.0113 ± 0.00072 µM
SMILES: CCCCCCCC/C=C\CCCCCCC/C=C1/C[C@](/C=C/C(=O)OC)(CO)OC1=O [drawing 36]
